From PubChem BioAssay (NCI)
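The compound was tested at five concentrations on cells cultured in 96-well plates, with a 48-hour exposure period. Here, GI50 denotes the concentration required for 50% inhibition of growth. TGI: concentration producing complete growth inhibition.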

Key:
Assay in all cases: NCI tumour cell line growth inhibition, 48 h
RXF 393 renal = test system: RXF 393 renal
OVCAR-4 ovarian = test system: OVCAR-4 ovarian
SNB-75 CNS = test system: SNB-75 CNS
COLO 205 colon = test system: COLO 205 colon
NCI-H23 lung = test system: NCI-H23 lung
HCT-116 colon = test system: HCT-116 colon
ACHN renal = test system: ACHN renal
K-562 leukemia = test system: K-562 leukemia
SW-620 colon = test system: SW-620 colon
SNB-19 CNS = test system: SNB-19 CNS
NCI/ADR-RES ovarian = test system: NCI/ADR-RES ovarian
HS 578T breast = test system: HS 578T breast
PC-3 prostate = test system: PC-3 prostate
HT29 colon = test system: HT29 colon
MCF7 breast = test system: MCF7 breast
NCI-H460 lung = test system: NCI-H460 lung
HOP-92 NSCLC = test system: HOP-92 NSCLC
SK-MEL-2 melanoma = test system: SK-MEL-2 melanoma
UO-31 renal = test system: UO-31 renal
BT-549 breast = test system: BT-549 breast
HL-60(TB) leukemia = test system: HL-60(TB) leukemia
SF-539 CNS = test system: SF-539 CNS
RPMI-8226 leukemia = test system: RPMI-8226 leukemia
A549 NSCLC = test system: A549 NSCLC
HOP-62 NSCLC = test system: HOP-62 NSCLC
UACC-257 melanoma = test system: UACC-257 melanoma
SN12C renal = test system: SN12C renal
KM12 colon = test system: KM12 colon
TK-10 renal = test system: TK-10 renal
MOLT-4 leukemia = test system: MOLT-4 leukemia
SF-268 CNS = test system: SF-268 CNS
MDA-MB-231 breast = test system: MDA-MB-231 breast
UACC-62 melanoma = test system: UACC-62 melanoma
NCI-H522 lung = test system: NCI-H522 lung
LOX IMVI melanoma = test system: LOX IMVI melanoma
MDA-MB-435 = test system: MDA-MB-435
HCT-15 colon = test system: HCT-15 colon
OVCAR-8 ovarian = test system: OVCAR-8 ovarian
786-0 renal = test system: 786-0 renal
MALME-3M melanoma = test system: MALME-3M melanoma
SK-OV-3 ovarian = test system: SK-OV-3 ovarian
NCI-H226 lung = test system: NCI-H226 lung
SK-MEL-28 melanoma = test system: SK-MEL-28 melanoma
SR leukemia = test system: SR leukemia
SF-295 CNS = test system: SF-295 CNS
DU-145 prostate = test system: DU-145 prostate
EKVX NSCLC = test system: EKVX NSCLC
A498 renal = test system: A498 renal
CCRF-CEM leukemia = test system: CCRF-CEM leukemia
SK-MEL-5 melanoma = test system: SK-MEL-5 melanoma
OVCAR-5 ovarian = test system: OVCAR-5 ovarian
IGROV1 ovarian = test system: IGROV1 ovarian
M14 melanoma = test system: M14 melanoma
HCC-2998 colon = test system: HCC-2998 colon
OVCAR-3 ovarian = test system: OVCAR-3 ovarian
U251 CNS = test system: U251 CNS
T-47D breast = test system: T-47D breast

`O=c1ccccc(-c2ccc(Br)cc2)c1O` was tested, and the GI50 (RXF 393 renal) was 0.324 µM, the TGI (RXF 393 renal) was 8.12 µM and the GI50 (OVCAR-4 ovarian) was 0.33 µM. The TGI (OVCAR-4 ovarian) was 27.3 µM, the GI50 (SNB-75 CNS) was 0.611 µM and the TGI (SNB-75 CNS) was 27.6 µM. For the same compound, the GI50 (COLO 205 colon) was 0.466 µM, the TGI (COLO 205 colon) was 27 µM and the GI50 (NCI-H23 lung) was 0.528 µM. For the same compound, the TGI (NCI-H23 lung) was 15.8 µM, the GI50 (HCT-116 colon) was 0.404 µM and the TGI (HCT-116 colon) was 14.6 µM. It also gave a GI50 (ACHN renal) of 0.367 µM, a TGI (ACHN renal) of 25.1 µM and a GI50 (K-562 leukemia) of 0.463 µM. It also gave a TGI (K-562 leukemia) greater than 100 µM, a GI50 (SW-620 colon) of 0.41 µM and a TGI (SW-620 colon) of 40.5 µM. It also gave a GI50 (SNB-19 CNS) of 0.459 µM, a TGI (SNB-19 CNS) greater than 100 µM and a GI50 (NCI/ADR-RES ovarian) of 0.289 µM. The TGI (NCI/ADR-RES ovarian) was 2.37 µM, the GI50 (HS 578T breast) was 4.61 µM and the TGI (HS 578T breast) was 83.8 µM. The GI50 (PC-3 prostate) was 0.628 µM, the TGI (PC-3 prostate) was 37.3 µM and the GI50 (HT29 colon) was 6.44 µM. The TGI (HT29 colon) was 36.8 µM, the GI50 (MCF7 breast) was 0.311 µM and the TGI (MCF7 breast) was 46.8 µM. For the same compound, the GI50 (NCI-H460 lung) was 0.318 µM, the TGI (NCI-H460 lung) was 10.6 µM and the GI50 (HOP-92 NSCLC) was 6.53 µM. It also gave a TGI (HOP-92 NSCLC) of 34.1 µM, a GI50 (SK-MEL-2 melanoma) of 0.957 µM and a TGI (SK-MEL-2 melanoma) of 25.8 µM. It also gave a GI50 (UO-31 renal) of 0.369 µM, a TGI (UO-31 renal) of 20.4 µM and a GI50 (BT-549 breast) of 0.795 µM. For the same compound, the TGI (BT-549 breast) was 54 µM, the GI50 (HL-60(TB) leukemia) was 0.262 µM and the TGI (HL-60(TB) leukemia) was 0.718 µM. The GI50 (SF-539 CNS) was 0.458 µM, the TGI (SF-539 CNS) was 12.1 µM and the GI50 (RPMI-8226 leukemia) was 0.401 µM. For the same compound, the TGI (RPMI-8226 leukemia) was 25 µM, the GI50 (A549 NSCLC) was 0.322 µM and the TGI (A549 NSCLC) was 24 µM. It also gave a GI50 (HOP-62 NSCLC) of 0.377 µM, a TGI (HOP-62 NSCLC) of 15.9 µM and a GI50 (UACC-257 melanoma) of 0.23 µM. It also gave a TGI (UACC-257 melanoma) of 8.76 µM, a GI50 (SN12C renal) of 0.829 µM and a TGI (SN12C renal) of 16.4 µM. The GI50 (KM12 colon) was 0.43 µM, the TGI (KM12 colon) was 22.6 µM and the GI50 (TK-10 renal) was 0.541 µM. For the same compound, the TGI (TK-10 renal) was 70.7 µM, the GI50 (MOLT-4 leukemia) was 0.334 µM and the TGI (MOLT-4 leukemia) was greater than 100 µM. It also gave a GI50 (SF-268 CNS) of 0.42 µM, a TGI (SF-268 CNS) greater than 100 µM and a GI50 (MDA-MB-231 breast) of 0.737 µM. For the same compound, the TGI (MDA-MB-231 breast) was 35.7 µM, the GI50 (UACC-62 melanoma) was 0.298 µM and the TGI (UACC-62 melanoma) was 1.73 µM. For the same compound, the GI50 (NCI-H522 lung) was 0.461 µM, the TGI (NCI-H522 lung) was 40.9 µM and the GI50 (LOX IMVI melanoma) was 0.323 µM. For the same compound, the TGI (LOX IMVI melanoma) was 13.8 µM, the GI50 (MDA-MB-435) was 0.386 µM and the TGI (MDA-MB-435) was greater than 100 µM. For the same compound, the GI50 (HCT-15 colon) was 0.256 µM, the TGI (HCT-15 colon) was 36 µM and the GI50 (OVCAR-8 ovarian) was 0.383 µM. The TGI (OVCAR-8 ovarian) was greater than 100 µM, the GI50 (786-0 renal) was 0.408 µM and the TGI (786-0 renal) was 21.7 µM. For the same compound, the GI50 (MALME-3M melanoma) was 2.18 µM, the TGI (MALME-3M melanoma) was 47.7 µM and the GI50 (SK-OV-3 ovarian) was 0.428 µM. It also gave a TGI (SK-OV-3 ovarian) of 24.1 µM, a GI50 (NCI-H226 lung) of 1.04 µM and a TGI (NCI-H226 lung) of 16.6 µM. It also gave a GI50 (SK-MEL-28 melanoma) of 0.489 µM, a TGI (SK-MEL-28 melanoma) of 26.4 µM and a GI50 (SR leukemia) of 0.316 µM. For the same compound, the TGI (SR leukemia) was 17.1 µM, the GI50 (SF-295 CNS) was 0.34 µM and the TGI (SF-295 CNS) was 16.8 µM. The GI50 (DU-145 prostate) was 0.595 µM, the TGI (DU-145 prostate) was 45 µM and the GI50 (EKVX NSCLC) was 0.343 µM. The TGI (EKVX NSCLC) was 15 µM, the GI50 (A498 renal) was 1.21 µM and the TGI (A498 renal) was 7.68 µM. The GI50 (CCRF-CEM leukemia) was 0.291 µM, the TGI (CCRF-CEM leukemia) was greater than 100 µM and the GI50 (SK-MEL-5 melanoma) was 0.247 µM. It also gave a TGI (SK-MEL-5 melanoma) of 0.701 µM, a GI50 (OVCAR-5 ovarian) of 0.725 µM and a TGI (OVCAR-5 ovarian) greater than 100 µM. It also gave a GI50 (IGROV1 ovarian) of 0.432 µM, a TGI (IGROV1 ovarian) greater than 100 µM and a GI50 (M14 melanoma) of 0.316 µM. It also gave a TGI (M14 melanoma) of 13.1 µM, a GI50 (HCC-2998 colon) of 0.425 µM and a TGI (HCC-2998 colon) of 21.8 µM. The GI50 (OVCAR-3 ovarian) was 0.412 µM, the TGI (OVCAR-3 ovarian) was 27.6 µM and the GI50 (U251 CNS) was 0.383 µM. It also gave a TGI (U251 CNS) of 13.6 µM, a GI50 (T-47D breast) of 0.562 µM and a TGI (T-47D breast) of 41.3 µM.
